How the values were obtained:
hTP = molecular target: T1, hTP (Homo sapiens, UniProt P21731); test: Functional data, human recombinant TP receptor stable transfectants; assay type: cell-based
T1 construct: expressed in transfected cells
T1 sequence (P21731 1-343): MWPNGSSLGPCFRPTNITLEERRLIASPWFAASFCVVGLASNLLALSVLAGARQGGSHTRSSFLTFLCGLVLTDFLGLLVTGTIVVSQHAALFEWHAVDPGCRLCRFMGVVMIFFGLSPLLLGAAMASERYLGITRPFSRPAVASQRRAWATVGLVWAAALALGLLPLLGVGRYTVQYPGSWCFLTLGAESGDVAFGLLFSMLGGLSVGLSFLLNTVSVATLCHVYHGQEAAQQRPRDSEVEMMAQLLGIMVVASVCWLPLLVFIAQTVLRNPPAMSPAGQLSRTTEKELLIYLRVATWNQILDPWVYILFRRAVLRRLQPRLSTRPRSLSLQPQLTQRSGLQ
Procedure: (§1) Human Recombinant EP1, EP2, EP3, EP4, FP, TP, IP and DP Receptors: Stable Transfectants
(§2) Plasmids encoding the human EP1, EP2, EP3, EP4, FP, TP, IP and DP receptors were prepared by cloning the respective coding sequences into the eukaryotic expression vector pCEP4 (Invitrogen). The pCEP4 vector contains an Epstein Barr virus (EBV) origin of replication, which permits episomal replication in primate cell lines expressing EBV nuclear antigen (EBNA-1). It also contains a hygromycin resistance gene that is used for eukaryotic selection. The cells employed for stable transfection were human embryonic kidney cells (HEK-293) that were transfected with and express the EBNA-1 protein. These HEK-293-EBNA cells (Invitrogen) were grown in medium containing Geneticin (G418) to maintain expression of the EBNA-1 protein. HEK-293 cells were grown in DMEM with 10% fetal bovine serum (FBS), 250 μg ml^−1 G418 (Life Technologies) and 200 μg ml^−1 gentamicin or penicillin/streptomycin.
(§3) For transfection, the cells were grown to 50-60% confluency on 10 cm plates. The plasmid pCEP4 incorporating cDNA inserts for the respective human prostanoid receptor (20 μg) was added to 500 μl of 250 mM CaCl2. HEPES buffered saline×2 (2×HBS, 280 mM NaCl, 20 mM HEPES acid, 1.5 mM Na2 HPO4, pH 7.05-7.12) was then added dropwise to a total of 500 μl, with continuous vortexing at room temperature. After 30 min, 9 ml DMEM were added to the mixture. The DNA/DMEM/calcium phosphate mixture was then added to the cells, which had been previously rinsed with 10 ml PBS. The cells were then incubated for 5 hr at 37° C. in humidified 95% air/5% CO2. The calcium phosphate solution was then removed and the cells were treated with 10% glycerol in DMEM for 2 min. The glycerol solution was then replaced by DMEM with 10% FBS. The cells were incubated overnight and the medium was replaced by DMEM/10% FBS containing 250 μg ml^−1 G418 and penicillin/streptomycin. The following day hygromycin B was added to a final concentration of 200 μg ml^−1.
(§4) Ten days after transfection, hygromycin B resistant clones were individually selected and transferred to a separate well on a 24 well plate. At confluence each clone was transferred to one well of a 6 well plate, and then expanded in a 10 cm dish. Cells were maintained under continuous hygromycin selection until use.

hEP1 = molecular target: T2, hEP1 (Homo sapiens, UniProt P34995); test: Functional data, human recombinant EP1 receptor stable transfectants; assay type: cell-based
T2 construct: expressed in transfected cells
T2 sequence (P34995 1-402): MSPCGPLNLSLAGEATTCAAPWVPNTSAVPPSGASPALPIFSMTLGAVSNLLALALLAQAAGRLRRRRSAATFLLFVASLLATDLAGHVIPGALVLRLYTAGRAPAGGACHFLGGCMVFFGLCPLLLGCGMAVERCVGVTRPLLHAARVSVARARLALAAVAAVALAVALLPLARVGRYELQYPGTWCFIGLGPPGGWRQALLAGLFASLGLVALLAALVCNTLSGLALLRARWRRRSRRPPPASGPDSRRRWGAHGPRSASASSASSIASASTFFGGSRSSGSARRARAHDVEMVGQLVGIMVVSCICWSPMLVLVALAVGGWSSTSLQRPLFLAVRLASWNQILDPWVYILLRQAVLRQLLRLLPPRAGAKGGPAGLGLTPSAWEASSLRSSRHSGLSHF
Procedure: as §1, §2, §3, §4

hEP2 = molecular target: T3, hEP2 (Homo sapiens, UniProt P43116); test: Radioligand binding, hEP2; conditions: [3H]PGE2 competition
T3 construct: expressed in transfected cells
T3 sequence (P43116 whole entry): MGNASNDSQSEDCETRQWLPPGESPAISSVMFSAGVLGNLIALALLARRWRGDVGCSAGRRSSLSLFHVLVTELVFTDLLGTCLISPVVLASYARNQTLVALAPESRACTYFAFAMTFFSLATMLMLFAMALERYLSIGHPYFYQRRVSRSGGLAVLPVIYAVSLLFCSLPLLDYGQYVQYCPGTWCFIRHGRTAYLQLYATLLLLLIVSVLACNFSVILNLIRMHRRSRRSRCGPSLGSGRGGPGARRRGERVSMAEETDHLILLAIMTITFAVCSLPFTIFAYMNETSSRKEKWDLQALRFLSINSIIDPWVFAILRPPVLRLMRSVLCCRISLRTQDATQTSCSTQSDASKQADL
Procedure: as §1
as §2, with “HEK-293 cells were grown in DMEM with 10% fetal bovine serum (FBS), 250 μg ml^−1 G418 (Life Technologies) and 200 μg ml^−1 gentamicin or penicillin/streptomycin.” left out
Radioligand binding studies on plasma membrane fractions prepared for cells stably transfected with the cat or human receptor were performed as follows. […] The pellet was then resuspended in TME buffer to provide a final protein concentration of 1 mg/ml, as determined by Bio-Rad assay. […]
The binding of [^3H](N) PGE2 (specific activity 165 Ci/mmol) was determined in duplicate and in at least 3 separate experiments. […] Competition studies were performed using a final concentration of 2.5 or 5 nM [^3H](N) PGE2 and non-specific binding was determined with 10^−5 M unlabelled PGE2.

hEP4 [1] = molecular target: T4, hEP4 (Homo sapiens, UniProt P35408); test: Functional data, human recombinant EP4 receptor stable transfectants; assay type: cell-based
T4 construct: expressed in transfected cells
T4 sequence (P35408 whole entry): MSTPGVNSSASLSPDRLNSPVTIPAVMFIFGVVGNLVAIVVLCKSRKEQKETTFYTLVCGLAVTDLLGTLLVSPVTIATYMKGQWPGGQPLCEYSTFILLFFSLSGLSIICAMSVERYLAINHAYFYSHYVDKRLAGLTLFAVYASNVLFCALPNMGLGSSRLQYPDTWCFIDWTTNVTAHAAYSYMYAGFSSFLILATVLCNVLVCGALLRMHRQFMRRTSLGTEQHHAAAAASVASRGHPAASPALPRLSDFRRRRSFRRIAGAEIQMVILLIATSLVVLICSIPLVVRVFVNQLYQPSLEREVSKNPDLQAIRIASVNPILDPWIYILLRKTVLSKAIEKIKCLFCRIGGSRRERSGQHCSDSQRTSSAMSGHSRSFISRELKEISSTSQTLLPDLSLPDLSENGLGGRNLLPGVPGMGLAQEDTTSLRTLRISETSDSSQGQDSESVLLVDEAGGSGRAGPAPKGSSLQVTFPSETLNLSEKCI
Procedure: as §1
as §2, with “The cells employed for stable transfection were human embryonic kidney cells (HEK-293) that were transfected with and express the EBNA-1 protein. These HEK-293-EBNA cells (Invitrogen) were grown in medium containing Geneticin (G418) to maintain expression of the EBNA-1 protein.” left out
as §3, with “HEPES buffered saline×2 (2×HBS, 280 mM NaCl, 20 mM HEPES acid, 1.5 mM Na2 HPO4, pH 7.05-7.12) was then added dropwise to a total of 500 μl, with continuous vortexing at room temperature.” left out
as §4

hEP3A = molecular target: T5, hEP3A (Homo sapiens, UniProt P43115); test: Functional data, human recombinant EP3A receptor stable transfectants; assay type: cell-based
T5 construct: expressed in transfected cells
T5 sequence (P43115 1-390): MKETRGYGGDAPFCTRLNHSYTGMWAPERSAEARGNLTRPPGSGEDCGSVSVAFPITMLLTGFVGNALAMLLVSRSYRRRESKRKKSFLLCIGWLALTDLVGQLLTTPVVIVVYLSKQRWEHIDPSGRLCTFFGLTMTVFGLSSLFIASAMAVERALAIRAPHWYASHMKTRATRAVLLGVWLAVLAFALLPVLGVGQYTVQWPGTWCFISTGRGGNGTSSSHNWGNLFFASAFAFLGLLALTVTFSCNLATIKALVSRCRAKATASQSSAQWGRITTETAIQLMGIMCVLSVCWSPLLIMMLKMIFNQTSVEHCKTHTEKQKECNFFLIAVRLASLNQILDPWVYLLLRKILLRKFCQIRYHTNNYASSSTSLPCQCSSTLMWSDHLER
Procedure: as §1
as §2, with “The cells employed for stable transfection were human embryonic kidney cells (HEK-293) that were transfected with and express the EBNA-1 protein. These HEK-293-EBNA cells (Invitrogen) were grown in medium containing Geneticin (G418) to maintain expression of the EBNA-1 protein.” left out
as §3, with “HEPES buffered saline×2 (2×HBS, 280 mM NaCl, 20 mM HEPES acid, 1.5 mM Na2 HPO4, pH 7.05-7.12) was then added dropwise to a total of 500 μl, with continuous vortexing at room temperature.” left out
as §4

hEP4 [2] = molecular target: T4, hEP4; test: Radioligand binding, hEP4; conditions: [3H]PGE2 competition
Procedure: as §1
as §2, with “The cells employed for stable transfection were human embryonic kidney cells (HEK-293) that were transfected with and express the EBNA-1 protein. These HEK-293-EBNA cells (Invitrogen) were grown in medium containing Geneticin (G418) to maintain expression of the EBNA-1 protein.” left out
as §3, with “HEPES buffered saline×2 (2×HBS, 280 mM NaCl, 20 mM HEPES acid, 1.5 mM Na2 HPO4, pH 7.05-7.12) was then added dropwise to a total of 500 μl, with continuous vortexing at room temperature.” left out
as §4
Radioligand binding studies on plasma membrane fractions prepared for cells stably transfected with the cat or human receptor were performed as follows. Cells washed with TME buffer were scraped from the bottom of the flasks and homogenized for 30 sec using a Brinkman PT 10/35 polytron. TME buffer was added as necessary to achieve a 40 ml volume in the centrifuge tubes. TME is comprised of 50 mM TRIS base, 10 mM MgCl2, 1 mM EDTA; pH 7.4 is achieved by adding 1 N HCl. The cell homogenate was centrifuged at 19,000 rpm for 20-25 min at 4° C. using a Beckman Ti-60 or Ti-70 rotor. The pellet was then resuspended in TME buffer to provide a final protein concentration of 1 mg/ml, as determined by Bio-Rad assay. Radioligand binding assays were performed in a 100 μl or 200 μl volume.
The binding of [^3H](N) PGE2 (specific activity 165 Ci/mmol) was determined in duplicate and in at least 3 separate experiments. Incubations were for 60 min at 25° C. and were terminated by the addition of 4 ml of ice-cold 50 mM TRIS-HCl followed by rapid filtration through Whatman GF/B filters and three additional 4 ml washes in a cell harvester (Brandel). Competition studies were performed using a final concentration of 2.5 or 5 nM [^3H](N) PGE2 and non-specific binding was determined with 10^−5 M unlabelled PGE2.

hIP = molecular target: T6, hIP (Homo sapiens, UniProt P43119); test: Functional data, human recombinant IP receptor stable transfectants; assay type: cell-based
T6 construct: expressed in transfected cells
T6 sequence (P43119 whole entry): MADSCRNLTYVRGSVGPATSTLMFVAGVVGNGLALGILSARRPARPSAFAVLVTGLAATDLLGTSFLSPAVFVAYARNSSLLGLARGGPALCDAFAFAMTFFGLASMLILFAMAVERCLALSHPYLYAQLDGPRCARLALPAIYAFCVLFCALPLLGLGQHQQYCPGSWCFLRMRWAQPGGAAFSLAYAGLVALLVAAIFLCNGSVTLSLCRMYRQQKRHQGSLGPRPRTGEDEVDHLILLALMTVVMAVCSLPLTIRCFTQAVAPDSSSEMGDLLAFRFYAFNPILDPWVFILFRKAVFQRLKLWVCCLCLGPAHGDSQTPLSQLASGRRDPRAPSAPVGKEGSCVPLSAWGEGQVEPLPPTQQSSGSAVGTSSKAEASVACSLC
Procedure: as §1, §2
For transfection, the cells were grown to 50-60% confluency on 10 cm plates. The plasmid pCEP4 incorporating cDNA inserts for the respective human prostanoid receptor (20 μg) was added to 500 μl of 250 mM CaCl2. HEPES buffered saline×2 (2×HBS, 280 mM NaCl, 20 mM HEPES acid, 1.5 mM Na2 HPO4, pH 7.05-7.12) was then added dropwise to a total of 500 μl, with continuous vortexing at room temperature. […]

hEP3D = molecular target: T7, hEP3D (Homo sapiens, UniProt P43115); test: Radioligand binding, hEP3D; conditions: [3H]PGE2 competition
T7 construct: expressed in transfected cells; host or cells: COS-7, transient transfection, plasma membrane fraction
T7 sequence (P43115 1-374 isoform P43115-4): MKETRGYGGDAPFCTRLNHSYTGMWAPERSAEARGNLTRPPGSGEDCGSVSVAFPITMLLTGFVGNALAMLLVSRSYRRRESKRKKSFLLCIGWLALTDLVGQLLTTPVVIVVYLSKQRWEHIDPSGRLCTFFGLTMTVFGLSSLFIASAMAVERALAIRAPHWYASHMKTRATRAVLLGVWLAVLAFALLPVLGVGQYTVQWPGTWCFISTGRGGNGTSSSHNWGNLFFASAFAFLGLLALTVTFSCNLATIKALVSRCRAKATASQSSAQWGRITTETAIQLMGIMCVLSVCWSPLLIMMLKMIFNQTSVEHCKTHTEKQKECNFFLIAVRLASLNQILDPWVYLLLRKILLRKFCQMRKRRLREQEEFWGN
Procedure: For radioligand binding on the transient transfectants, plasma membrane fraction preparation was as follows. COS-7 cells were washed with TME buffer, scraped from the bottom of the flasks, and homogenized for 30 sec using a Brinkman PT 10/35 polytron. TME buffer was added to achieve a final 40 ml volume in the centrifuge tubes. The composition of TME is […]; 10N HCl is added to achieve a pH of 7.4.
The cell homogenate was centrifuged at 19000 rpm for 20 min at 4° C. using a Beckman Ti-60 rotor. The resultant pellet was resuspended in TME buffer to give a final 1 mg/ml protein concentration, as determined by Biorad assay. Radioligand binding assays were performed in a 200 μl volume.
The binding of [^3H] PGE2 (specific activity 165 […]) at EP3D, receptors and [^3H]-SQ29548 (specific activity 41.5 Ci mmol^−1) at TP receptors were determined in duplicate in at least three separate experiments. Radiolabeled PGE2 was purchased from Amersham, radiolabeled SQ29548 was purchased from New England Nuclear. […] Competition studies were performed using a final concentration of 2.5 or 5 nM [^3H]-PGE2, or 10 nM [^3H]-SQ 29548 and non-specific binding determined with 10 μM of the respective unlabeled prostanoid. […]

O=C(O)CCCCCCN1C(=O)CC[C@@H]1/C=C/C(O)Cc1cccc(Cl)c1 (stereo partly drawn) [Example 1a, 7-[2S-[3R-Hydroxy-4-(chloro-phenyl)-but-1-enyl]-5-oxo-pyrrolidin-1-yl]-heptanoic acid]
EC50 (hTP): > 10000 nM
hEP1 functional EC50 (hEP1): hit
IC50 (hEP2): > 10000 nM
EC50 (hEP4 [1]): 0.02 nM
EC50 (hEP3A): 324 nM
IC50 (hEP4 [2]): 0.4 nM

CCOC(=O)CCCCCCN1C(=O)CC[C@@H]1/C=C/C(O)Cc1cccc(C(F)(F)F)c1 (stereo partly drawn) [Example 6a, 7-[2S-[3R-Hydroxy-4-(3-trifluoromethyl-phenyl)-but-1-enyl]-5-oxo-pyrrolidin-1-yl]-heptanoic acid, ethyl ester]
EC50 (hIP): > 10000 nM
EC50 (hEP4 [1]): 26 nM
EC50 (hEP3A): > 10000 nM
IC50 (hEP4 [2]): 200 nM

O=C(O)CCCCCCN1C(=O)CC[C@@H]1CCC(=O)Cc1cccc(C(F)(F)F)c1 [Example 7, 7-[2S-[3-Oxo-4-(trifluormethylphenyl)-butyl]-5-oxo-pyrrolidin-1-yl]-heptanoic acid]
EC50 (hTP): > 10000 nM
EC50 (hEP1): > 10000 nM
EC50 (hEP4 [1]): 551 nM
hEP3A functional EC50 (hEP3A): hit
IC50 (hEP4 [2]): 2200 nM

O=C(O)CCCCCCN1C(=O)CC[C@@H]1/C=C/C(=O)Cc1cccc(C(F)(F)F)c1 [Example 7a, 7-[2S-[3-Oxo-4-(trifluormethylphenyl)-but-1-enyl]-5-oxo-pyrrolidin-1-yl]-heptanoic acid]
EC50 (hEP1): > 10000 nM
IC50 (hEP2): > 10000 nM
EC50 (hEP4 [1]): 86 nM
hEP3A functional EC50 (hEP3A): hit
IC50 (hEP4 [2]): 500 nM

O=C(O)CCCCCCN1C(=O)CC[C@@H]1/C=C/C(=O)Cc1ccccc1 [Example 11a, 7-[2S-[3-Oxo-4-(phenyl)-but-1-enyl]-5-oxo-pyrrolidin-1-yl]-heptanoic acid]
EC50 (hTP): > 10000 nM
IC50 (hEP3D): 300 nM
EC50 (hEP4 [1]): 29 nM
hEP3A functional EC50 (hEP3A): hit

— patent US6906097B2, “8-azaprostaglandin analogs as agents for lowering intraocular pressure” (Allergan, Inc., priority 2002, dated 2005)
